This note sets out measurements from US20080271368A1, “METHOD OF PROMOTING PLANT GROWTH AND IMPROVING PLANT QUALITY AND GROWTH-PROMOTING AGENT AND QUALITY-IMPROVING AGENT TO BE USED IN THE METHOD” (priority 2006, published 2008).

The experiment deals with rice seedlings. Nature of the experiment: Rice yield test. The format is in vivo. As to conditions: for Average yield: average of nine bunches. As for the experimental part:
A predetermined amount of chemicals was weighed and embedded into soil together with roots of rice seedlings when the seedlings are planted in a paddy field in early May. […] Nine bunches were planted per one test field. After that, usual wet-rice culture was carried out until harvesting in early October. The rice crop was dried and weighed to determine the yield. Good unhusked rice obtained by wind selection was used as the test sample.

Each structure is given as a SMILES string.

As to `O=P([O-])(O)O.O=P([O-])(O)O.[Ca+2]` [Calcium dihydrogen phosphate], the Average yield is on record as 196 g (treated amount 1 g per 1 m^2, good unhusked rice) and 230 g (treated amount 10 g per 1 m^2, good unhusked rice). Also, the “Average yield (%)” value (treated amount 1 g per 1 m^2, untreated = 100) is listed as “(90) %” and the “Average yield (%)” value (treated amount 10 g per 1 m^2, untreated = 100) is “(105) %”.
